Measured values published in US11021481B2, “Substituted isoindolin-1-ones and 2,3-dihydro-1h-pyrrolo[3,4-c]pyridin-1-ones as HPK1 antagonists” (Nimbus Saturn, Inc., priority 2019, dated 2021).
Counter-ions that a name gives are not always drawn.

target: HPK1 (Homo sapiens (Human), UniProt Q92918); experiment: HPK1 biochemical enzyme assay (microfluidic mobility shift assay); conditions: 1.5 nM HPK1, ATP 1 mM final, 30 min preincubation, 60 min at RT, Caliper EZ Reader; read-out: HPK1 1000UMATP caliper IC50
Sequence (Q92918 whole entry): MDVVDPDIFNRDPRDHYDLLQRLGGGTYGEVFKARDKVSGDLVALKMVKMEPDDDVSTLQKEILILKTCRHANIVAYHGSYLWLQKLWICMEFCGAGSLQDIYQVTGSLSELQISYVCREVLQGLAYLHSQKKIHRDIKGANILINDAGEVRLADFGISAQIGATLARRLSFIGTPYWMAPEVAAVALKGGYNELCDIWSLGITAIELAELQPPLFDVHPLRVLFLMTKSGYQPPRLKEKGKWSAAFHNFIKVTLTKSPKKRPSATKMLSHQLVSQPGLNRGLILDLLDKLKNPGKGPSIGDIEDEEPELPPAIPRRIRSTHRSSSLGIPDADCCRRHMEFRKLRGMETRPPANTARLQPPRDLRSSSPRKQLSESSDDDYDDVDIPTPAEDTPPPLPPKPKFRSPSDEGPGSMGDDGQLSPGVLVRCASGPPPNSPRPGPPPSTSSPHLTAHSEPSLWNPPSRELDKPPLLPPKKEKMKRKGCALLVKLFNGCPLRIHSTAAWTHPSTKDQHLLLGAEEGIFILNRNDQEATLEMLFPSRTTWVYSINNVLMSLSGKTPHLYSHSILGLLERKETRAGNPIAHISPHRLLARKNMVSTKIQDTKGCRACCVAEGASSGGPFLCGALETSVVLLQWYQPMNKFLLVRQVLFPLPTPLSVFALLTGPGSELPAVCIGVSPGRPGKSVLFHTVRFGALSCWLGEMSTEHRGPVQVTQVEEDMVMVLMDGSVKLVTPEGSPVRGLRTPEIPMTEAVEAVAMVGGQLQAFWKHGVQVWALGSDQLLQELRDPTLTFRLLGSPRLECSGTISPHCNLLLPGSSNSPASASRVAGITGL
How it was run: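 Mobility shift readout of HPK1 activity after a 60 min RT reaction with 1 mM ATP, 1 μM substrate and 5 mM MgCl2. Enzyme/substrate mix was first exposed to compounds for 30 min, using ten-point curves topping at 3 μM final.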

| IC50 | SMILES |
| --- | --- |
| < 100 nM | CN1CCO[C@@]2(CCCN(c3ccc(Nc4ccc(-c5cnc6cc(F)ccn56)c5c4C(=O)NC5)nc3)C2)C1 [I-506, (S)-4-(7-fluoroimidazo [1,2-a]pyridin-3-yl)-7-((5-(4-methyl-1-oxa-4,8-diazaspiro[5.5]undecan-8-yl)pyridin-2-yl)amino)isoin-dolin-1-one] |
| < 100 nM | CN1CCO[C@]2(CCCN(c3ccc(Nc4ccc(-c5cnc6cc(F)ccn56)c5c4C(=O)NC5)nc3)C2)C1 [I-506a, (R)-4-(7-fluoroimidazo [1,2-a]pyridin-3-yl)-7-((5-(4-methyl-1-oxa-4,8-diazaspiro[5.5]undecan-8-yl)pyridin-2-yl)amino)isoin-dolin-1-one] |
| < 100 nM | O=C1NCc2c(-c3cnc4cc(F)ccn34)ccc(Nc3ccc(N4CCC[C@@]5(CNCCO5)C4)cn3)c21 [I-507, (R)-7-((5-(1-oxa-4,8-diazaspiro[5.5]undecan-8-yl)pyridin-2-yl)amino)-4-(7-fluoroimidazo [1,2-a]pyridin-3-yl)isoindolin-1-one] |
| < 100 nM | O=C1NCc2c(-c3cnc4cc(F)ccn34)ccc(Nc3ccc(N4CCC[C@]5(CNCCO5)C4)cn3)c21 [I-508, (S)-7-((5-(1-oxa-4.8-diazaspiro[5.5]undecan-8-yl)pyridin-2-yl)amino)-4-(7-fluoroimidazo [1,2-a]pyridin-3-yl)isoindolin-1-one] |
| < 100 nM | CN(C)C1COCCN(c2ccc(Nc3ccc(-c4cnc5cc(F)ccn45)c4c3C(=O)NC4)nc2)C1 (stereo not drawn) [I-509, 7-[[5-[6-(dimethylami-no)-l,4-oxazepan-4-yl]-2-pyridyl]amino]-4-(7-fluoroimidazo [1,2-a]pyridin-3-yl)isoindolin-1-one Formic acid salt] |
| < 100 nM | CCN(CC)Cc1nc(Nc2ccc(-c3cnc4cc(F)ccn34)c3c2C(=O)NC3)ccc1[C@H]1CCOC1 [I-510, (R)-7-((6-((diethylamino)-methyl)-5-(tetrahydrofuran-3-yl)pyridin-2-yl)amino)-4-(7-fluoroimidazo [1,2-a]pyridin-3-yl)isoindolin-1-one] |
| < 100 nM | CCN(CC)Cc1nc(Nc2ccc(-c3cnc4cc(F)ccn34)c3c2C(=O)NC3)ccc1[C@@H]1CCOC1 [I-511, (S)-7-((6-((diethylamino)methyl)-5-(tetrahydrofuran-3-yl)pyridin-2-yl)amino)-4-(7-fluoroimidazo [1,2-a]pyridin-3-yl)isoindolin-1-one] |
| < 100 nM | O=C1NCc2c(-c3cnc4cc(F)ccn34)ccc(Nc3ccc(N4CCO[C@H](Cn5ccnc5)C4)cn3)c21 [I-512, 4-(7-fluoroimidazo [1,2-a]pyridin-3-yl)-7-[[5-[(2S)-2-(imidazol-1-ylmethyl)mor-pholin-4-yl]-2-pyridyl]amino] isoindolin-1-one] |
| < 100 nM | O=C1NCc2c(-c3cnc4cc(F)ccn34)ccc(Nc3ccc([C@H]4CCOC4)c(CN4CCCC4)n3)c21 [I-515, (R)-4-(7-fluoroimidazo [1,2-a]pyridin-3-yl)-7-((6-(pyrrolidin-1-ylmethyl)-5-(tetrahydrofuran-3-yl)pyridin-2-yl)amino)isoin-dolin-1-one] |
| < 100 nM | O=C1NCc2c(-c3cnc4cc(F)ccn34)ccc(Nc3ccc([C@@H]4CCOC4)c(CN4CCCC4)n3)c21 [I-516, (S)-4-(7-fluoroimidazo [1,2-a]pyridin-3-yl)-7-((6-(pyrrolidin-1-ylmethyl)-5-(tetrahydrofuran-3-yl)pyridin-2-yl)amino)isoin-dolin-1-one] |
| < 100 nM | CN(C)CC1COCCN1c1ccc(Nc2ccc(-c3cnc4cc(F)ccn34)c3c2C(=O)NC3)nc1 (stereo not drawn) [I-517, 7-[ [5-[3-[(dimethylamino)-methyl]mor-pholin-4-yl]-2-pyridyl]amino]-4-(7-fluoroimidazo [1,2-a]pyridin-3-yl)isoindolin-1-one] |
| < 100 nM | CN(C)[C@@H]1COCCN(c2ccc(Nc3ccc(-c4cnc5cc(F)ccn45)c4c3C(=O)NC4)nc2)C1 [I-518, (S)-7-((5-(6-(dimethylami-no)-1,4-oxazepan-4-yl)pyridin-2-yl)amino)-4-(7-fluoroimidazo [1,2-a]pyridin-3-yl)isoindolin-1-one] |
| < 100 nM | CN(C)[C@H]1COCCN(c2ccc(Nc3ccc(-c4cnc5cc(F)ccn45)c4c3C(=O)NC4)nc2)C1 [I-519, (R)-7-((5-(6-(dimethylami-no)-1,4-oxazepan-4-yl)pyridin-2-yl)amino)-4-(7-fluoroimidazo [1,2-a]pyridin-3-yl)isoindolin-1-one] |
| < 100 nM | C[C@@H](c1ccc(Nc2ccc(-c3cnc4cc(F)ccn34)c3c2C(=O)NC3)nc1)N(C)C [I-520, (S)-7-((5-(1-(dimethylami-no)ethyl)pyridin-2-yl)amino)-4-(7-fluoroimidazo [1,2-a]pyridin-3-yl)isoindolin-1-one] |
| < 100 nM | C[C@H]1CN([C@@H](C)c2ccc(Nc3ccc(-c4cnc5cc(F)ccn45)c4c3C(=O)NC4)nc2)CCO1 [I-522, 4-(7-fluoroimidazo [1,2-a]pyridin-3-yl)-7-((5-((S)-1-((S)-2-methylmorpho-lino)ethyl)pyri-din-2-yl)amino) isoin-dolin-1-one] |
| < 100 nM | C[C@H](c1ccc(Nc2ccc(-c3cnc4cc(F)ccn34)c3c2C(=O)NC3)nc1)N1CCO[C@@H](C)C1 [I-523, 4-(7-fluoroimidazo [1,2-a]pyridin-3-yl)-7-((5-((R)-1-((S)-2-methylmorpho-lino)ethyl)pyr-idin-2-yl)amino) isoin-dolin-1-one] |
| < 100 nM | CN(C)Cc1nc(Nc2ccc(-c3cnc4cc(F)ccn34)c3c2C(=O)NC3)ccc1N1CCC[C@@H](O)C1 [I-524, 7-[[6-[(dimethylamino)-methyl]-5-[(3R)-3-hydroxy-1-piperipyl]-2-pyridyl]amino]-4-(7-fluoroimidazo [1,2-a]pyridin-3-yl)isoindolin-1-one] |
| < 100 nM | CN(C)Cc1nc(Nc2ccc(-c3cnc4cc(F)ccn34)c3c2C(=O)NC3)ccc1N1CCOCC12CC2 [I-525, 7-[[6-[(dimethylamino)-methyl]-5-(7-oxa-4-azaspiro[2.5]octan-4-yl)-2-pyridyl]amino]-4-(7-fluoroimidazo [1,2-a]pyridin-3-yl)isoindolin-1-one] |
| < 100 nM | C[C@@H](c1ccc(Nc2ccc(-c3cnc4cc(F)ccn34)c3c2C(=O)NC3)nc1)N1CCC(O)CC1 [I-526, (S)-4-(7-fluoroimidazo [1,2-a]pyridin-3-yl)-7-((5-(l-(4-hydroxypiperidin-1-yl)ethyl)pyridin-2-yl)amino)isoin-dolin-1-one] |
| < 100 nM | C[C@H](c1ccc(Nc2ccc(-c3cnc4cc(F)ccn34)c3c2C(=O)NC3)nc1)N1CCC(O)CC1 [I-527, (R)-4-(7-fluoroimidazo [1,2-a]pyridin-3-yl)-7-((5-(1-(4-hydroxypiperidin-1-yl)ethyl)pyridin-2-yl)amino)isoin-dolin-1-one] |
| < 100 nM | C[C@@H]1COCCN1c1ccc(Nc2ccc(-c3cnc4cc(F)ccn34)c3c2C(=O)NC3)nc1CN(C)C [I-528, 7-[[6-[(dimethylamino)-methyl]-5-[(3R)-3-methylmorpho-lin-4-yl J-2-pyridyl]amino]-4-(7-fluoroimidazo [1,2-a]pyridin-3-yl)isoindolin-1-one Formic acid salt] |
| < 100 nM | C[C@H]1CN(c2ccc(Nc3ccc(-c4cnc5cc(F)ccn45)c4c3C(=O)NC4)nc2CN(C)C)CCO1 [I-529, 7-[[6-[(dimethylamino)-methyl]-5-[(2S)-2-methylmorpho-lin-4-yl]-2-pyridyl]amino]-4-(7-fluoroimidazo [1,2-a]pyridin-3-yl)isoindolin-1-one Bis formic acid salt] |
| < 100 nM | CN(C)Cc1nc(Nc2ccc(-c3cnc4cc(F)ccn34)c3c2C(=O)NC3)ccc1N1CCOC2(CC2)C1 [I-530, 7-[[6-[(dimethylamino)-methyl]-5-(4-oxa-7-azaspiro[2.5]octan-7-yl)-2-pyridyl]amino]-4-(7-fluoroimidazo [1,2-a]pyridin-3-yl)isoindolin-1-one Formic acid salt] |
| < 100 nM | C[C@H]1COCCN1c1ccc(Nc2ccc(-c3cnc4cc(F)ccn34)c3c2C(=O)NC3)nc1CN(C)C [I-531, 7-[[6-[(dimethylamino)-methyl]-5-[(3S)-3-methylmorpho-lin-4-yl]-2-pyridyl]amino] 4-(7-fluoroimidazo [1,2-a]pyridin-3-yl)isoindolin-1-one] |
| < 100 nM | CN(C)Cc1nc(Nc2ccc(-c3cnc4cc(F)ccn34)c3c2C(=O)NC3)ccc1N1CCC[C@H](O)C1 [I-532, 7-[[6-[(dimethylamino)-methyl]-5-[(3S)-3-hydroxy-1-piperipyl]-2-pyridyl]amino]-4-(7-fluoroimidazo [1,2-a]pyridin-3-yl)isoindolin-1-one] |
| < 100 nM | CN(C)Cc1nc(Nc2ccc(-c3cnc4cc(F)ccn34)c3c2C(=O)NC3)ccc1O[C@@H]1CCOC1 [I-533] |
| < 100 nM | CN(C)Cc1nc(Nc2ccc(-c3cnc4cc(F)ccn34)c3c2C(=O)NC3)ccc1N1CCC(=O)N(C)CC1 [I-534, 7-[[6-[(dimethylamino)-methyl]-5-(4-methyl-5-oxo-1,4-diazepan-1-yl)-2-pyridyl]amino]-4-(7-fluoroimidazo [1,2-a]pyridin-3-yl)isoindolin-1-one Formic acid salt] |
| < 100 nM | CN(C)Cc1nc(Nc2ccc(-c3cnc4cc(F)ccn34)c3c2C(=O)NC3)ccc1N1CCC(C)(O)CC1 [I-535, 7-[[6-[(dimethylamino)-methyl]-5-(4-hydroxy-4-methyl-1-piperidyl)-2-pyridyl]amino]-4-(7-fluoroimidazo [1,2-a]pyridin-3-yl)isoindolin-1-one Formic acid salt] |
| < 100 nM | CN(C)C1CCCc2ccc(Nc3ccc(-c4cnc5cc(F)ccn45)c4c3C(=O)NC4)nc21 (stereo not drawn) [I-536, 7-[[8-(dimethylami-no)-5,6,7,8-tetrahydroquin-olin-2-yl]amino]-4-(7-fluoroimidazo [1,2-a]pyridin-3-yl)isoindolin-1-one Formic acid salt] |
| < 100 nM | Cc1cnn2c(-c3ccc(Nc4ccc([C@H]5CCOC5)c(CN(C)C)n4)c4c3CNC4=O)cnc2c1 [I-537, (R)-7-((6-((dimethylamino)-methyl)-5-(tetrahydrofuran-3-yl)pyridin-2-yl)amino)-4-(7-methylimidazo [1,2-b]pyridazin-3-yl)isoindolin-1-one] |
